The assay addresses His-tagged recombinant human Gal-3 (hGal-3) (Homo sapiens (Human), UniProt P17931). Briefly: Gal-3 HTRF assay (His-tagged hGal-3 binding to B-ASF).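 Further: compounds preincubated 30 min with hGal-3, then 1 h with B-ASF, detection via terbium anti-His antibody and streptavidin d2. Control with B-ASF counts as full signal, omitting B-ASF as background.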
Where [1] appears, read: HTRF, hGal-3 15 nM, B-ASF 15 nM, read-out: hGal-3 IC50.

The structures appear in SMILES notation. Where two headings read alike, the source gives them in different places.

For 32 molecules, IC50 results are on record in patent publication US11267811B2, “Small molecule inhibitors of galectin-3” (BRISTOL-MYERS SQUIBB COMPANY, priority 2017, dated 2022).

Sequence of His-tagged recombinant human Gal-3 (hGal-3) (P17931 whole entry): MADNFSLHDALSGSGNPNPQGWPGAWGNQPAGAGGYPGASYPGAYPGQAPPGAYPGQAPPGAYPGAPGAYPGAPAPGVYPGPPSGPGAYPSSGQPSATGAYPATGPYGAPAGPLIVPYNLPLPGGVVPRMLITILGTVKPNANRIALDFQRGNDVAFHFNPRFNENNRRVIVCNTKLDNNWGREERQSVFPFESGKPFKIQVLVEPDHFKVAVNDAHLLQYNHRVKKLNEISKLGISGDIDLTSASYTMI

Take `Cc1nc([C@@H]2O[C@H](CO)[C@H](O)[C@H](n3cc(-c4ccc(Cl)c(F)c4)nn3)[C@H]2O)n(-c2ccc3ncccc3c2)n1` [Example 253]: the IC50 (as a rule, the midpoint of a concentration-inhibition curve) (read-out: hGal3 IC50) is 80 nM.
Turning to `Cc1nc([C@@H]2O[C@H](CO)[C@H](O)[C@H](n3cc(-c4ccc(Cl)c(F)c4F)nn3)[C@H]2O)n(-c2cc(Cl)ccc2C2CC2)n1` [Example A44], the concentration for half-maximal inhibition (IC50) (read-out: hGal IC50) came to 140 nM.
On to `OC[C@H]1O[C@@H](c2ncnn2-c2cc(F)cc(F)c2)[C@H](O)[C@@H](n2cc(-c3cc(F)c(F)c(F)c3)nn2)[C@H]1O` [Example 37], for which, under setting [1], the IC50 was 210 nM.
Take `Cc1nc2ccc(-n3nc(C(C)(C)O)nc3[C@H]3C[C@@H](n4cc(-c5cc(F)c(F)c(F)c5)nn4)[C@@H](O)[C@@H](CO)O3)cc2s1` [Example 270, (2R,3R,4R,6R)-2-(hydroxymethyl)-6-(3-(2-hydroxypropan-2-yl)-1-(2-methylbenzo[d]thiazol-6-yl)-1H-1,2,4-triazol-5-yl)-4-(4-(3,4,5-trifluorophenyl)-1H-1,2,3-triazol-1-yl)tetrahydro-2H-pyran-3-ol]: under setting [1], the IC50 was found to be 170 nM.
As for `OC[C@H]1O[C@@H](c2nncn2-c2ccc3ncsc3c2)[C@H](O)[C@@H](n2cc(-c3cc(F)c(F)c(F)c3)nn2)[C@H]1O` [Example 120], the IC50 under setting [1] is 30 nM.
Turning to `Cc1nc([C@@H]2O[C@H](CO)[C@H](O)[C@H](n3cc(-c4ccc(Cl)c(F)c4)nn3)[C@H]2O)n(-c2cc(Cl)ccc2Br)n1` [Example A15], for the setting “read-out: hGal IC50”, the IC50 worked out at 40 nM.
As to `Cc1nc([C@@H]2O[C@H](CO)[C@H](O)[C@H](n3cc(-c4cc(F)c(Cl)c(F)c4)nn3)[C@H]2O)n(-c2cc(Cl)cnc2C(F)(F)F)n1` [Example A10], under “read-out: hGal IC50”, the 50% inhibitory concentration (IC50) was 29 nM.
In the case of `OC[C@H]1O[C@@H](c2nncn2-c2cccc(C(F)(F)F)c2)[C@H](O)[C@@H](n2cc(-c3cc(F)c(F)c(F)c3)nn2)[C@H]1O` [Example 80], under setting [1], the IC50 came to 330 nM.
`Cc1nc([C@@H]2O[C@H](CO)[C@H](O)[C@H](n3cc(-c4ccc(Br)c(F)c4)nn3)[C@H]2O)n(-c2cc(Cl)cc3cccnc23)n1` [Example A12]: where the note is “read-out: hGal IC50”, the 50% inhibitory concentration (IC50) was found to be 46 nM.
For the molecule `Cc1nc([C@@H]2O[C@H](CO)[C@H](O)[C@H](n3cc(-c4cc(F)c(Cl)c(F)c4)nn3)[C@H]2O)n(-c2cc(CC(F)(F)F)ccc2Cl)n1` [Example A40], the half-maximal inhibitory concentration (IC50) (read-out: hGal IC50) worked out at 126 nM.
On the same count and under the same terms, the same measure for `Cc1nc([C@@H]2O[C@H](CO)[C@H](O)[C@H](n3cc(-c4cc(F)c(Cl)c(F)c4)nn3)[C@H]2O)n(-c2cc(Cl)ccc2Br)n1` [Example A13]: 22 nM.
In the case of `Cc1nc([C@@H]2O[C@H](CO)[C@H](O)[C@H](n3cc(-c4cc(F)c(Cl)c(F)c4)nn3)[C@H]2O)n(-c2cc(Cl)ccc2C)n1` [Example 261], under setting [1], the IC50 turned out to be 20 nM.
The same measure, in the same setting: for `CO[C@@H]1[C@@H](n2cc(-c3cc(F)c(F)c(F)c3)nn2)[C@@H](O)[C@@H](CO)O[C@H]1c1ncnn1-c1cccc(Cl)c1` [Example 54] the value was 83 nM.
In the case of `Cc1nc([C@@H]2O[C@H](CO)[C@H](O)[C@H](n3cc(-c4cc(F)c(F)c(F)c4)nn3)[C@H]2O)n(-c2cc(Cl)c(F)cc2Cl)n1` [Example A67], the IC50 (read-out: hGal IC50) was 39 nM.
In the case of `Cc1nc([C@@H]2O[C@H](CO)[C@H](O)[C@H](n3cc(-c4cc(F)c(Cl)c(F)c4)nn3)[C@H]2O)n(-c2cc(Cl)ccc2Cl)n1` [Example 260], the 50% inhibitory concentration (IC50) under setting [1] was found to be 50 nM.
On to `COc1ccc(Cl)cc1-n1nc(C)nc1[C@@H]1O[C@H](CO)[C@H](O)[C@H](n2cc(-c3ccc(Cl)c(F)c3)nn2)[C@H]1O` [Example 251], for which the IC50 (read-out: hGal3 IC50) came to 80 nM.
With `OC[C@H]1O[C@@H](c2ncnn2-c2ccc3ncsc3c2)C[C@@H](n2cc(-c3cc(F)c(F)c(F)c3)nn2)[C@H]1O` [Example 181], the IC50 under setting [1] was 40 nM.
In the case of `Cc1nc2ccc(-n3c(C)nnc3[C@@H]3O[C@H](CO)[C@H](O)[C@H](n4cc(-c5ccc(Cl)c(F)c5)nn4)[C@H]3O)cc2s1` [Example 305], the concentration for half-maximal inhibition (IC50) (read-out: hGal3 IC50) turned out to be 31 nM.
In the case of `OC[C@H]1O[C@@H](c2nncn2-c2ccc3ncccc3c2)[C@H](O)[C@@H](n2cc(-c3cc(F)c(F)c(F)c3)nn2)[C@H]1O` [Example 107], the IC50 under setting [1] is 50 nM.
Regarding `Cc1nc2ccc(-n3ncnc3[C@@H]3O[C@H](CO)[C@H](O)[C@H](n4cc(-c5cc(F)c(N6CC(O)C6)c(F)c5)nn4)[C@H]3O)cc2s1` [Example 242], the half-inhibitory concentration (IC50) under setting [1] came out at 60 nM.
Consider `Cc1nc([C@H]2C[C@@H](n3cc(-c4cc(F)c(F)c(F)c4)nn3)[C@@H](O)[C@@H](CO)O2)n(-c2cc(Cl)ccc2F)n1` [Example 185], for which the IC50 under setting [1] was 170 nM.
Take `COc1ccc(Cl)cc1-n1cnnc1[C@@H]1O[C@H](CO)[C@H](O)[C@H](n2cc(-c3cc(F)c(F)c(F)c3)nn2)[C@H]1O` [Example 74]: under setting [1], the IC50 is 110 nM.
Take `Cc1nc2ccc(-n3ncnc3[C@@H]3O[C@H](CO)[C@H](O)[C@H](n4cc(C(=O)NC5CCCC5)nn4)[C@H]3O)cc2s1` [Example 197]: the IC50 under setting [1] came to 1320 nM.
For the molecule `OC[C@H]1O[C@@H](c2ncnn2-c2cccc(F)c2)[C@H](O)[C@@H](n2cc(-c3cc(F)c(F)c(F)c3)nn2)[C@H]1O` [Example 38], the IC50 under setting [1] worked out at 390 nM.
In the case of `CNC(=O)c1cn([C@H]2[C@@H](O)[C@@H](CO)O[C@@H](c3ncnn3-c3ccc4nc(C)sc4c3)[C@@H]2O)nn1` [Example 195], under setting [1], the IC50 worked out at 1160 nM.
Still for that read-out and setting: the same measure for `O=C(O)c1nnn([C@@H]2O[C@H](CO)[C@H](O)[C@H](n3cc(-c4cc(F)c(F)c(F)c4)nn3)[C@H]2O)c1-c1ccc(Cl)c(Cl)c1` [Example 11]: 184 nM.
For `Cc1nc2ccc(-n3cnnc3[C@@H]3O[C@H](CO)[C@H](O)[C@H](n4cc(-c5cc(F)c(Cl)c(F)c5)nn4)[C@H]3O)cc2s1` [Example 302], for the setting “read-out: hGal3 IC50”, the IC50 stood at 28 nM.
For the molecule `O=C(O)c1ccccc1-n1ncnc1[C@@H]1O[C@H](CO)[C@H](O)[C@H](n2cc(-c3cc(F)c(F)c(F)c3)nn2)[C@H]1O` [Example 33], under setting [1], the IC50 was 790 nM.
In the case of `CCN(CC)CCNC(=O)c1nnc([C@@H]2O[C@H](CO)[C@H](O)[C@H](n3cc(-c4cccc(F)c4)nn3)[C@H]2O)o1` [Example 297, N-(2-(diethylamino)ethyl)-5-((2R,3R,4S,5R,6R)-4-(4-(3-fluorophenyl)-1H-1,2,3-triazol-1-yl)-3,5-dihydroxy-6-(hydroxymethyl)tetrahydro-2H-pyran-2-yl)-1,3,4-oxadiazole-2-carboxamide], the IC50 under setting [1] amounted to 9770 nM.
Take `Cc1nc([C@H]2C[C@@H](n3cc(-c4cc(F)c(F)c(F)c4)nn3)[C@@H](O)[C@@H](CO)O2)n(-c2ccc3ncsc3c2)n1` [Example 186]: the IC50 under setting [1] stood at 50 nM.
Regarding `O=C(O)CO[C@@H]1[C@@H](n2cc(-c3cc(F)c(F)c(F)c3)nn2)[C@@H](O)[C@@H](CO)O[C@H]1c1ncnn1-c1cccc(Cl)c1` [Example 53, 2-(((2S,3R,4S,5R,6R)-2-(1-(3-chlorophenyl)-1H-1,2,4-triazol-5-yl)-5-hydroxy-6-(hydroxymethyl)-4-(4-(3,4,5-trifluorophenyl)-1H-1,2,3-triazol-1-yl)tetrahydro-2H-pyran-3-yl)oxy)acetic acid], the IC50 under setting [1] was determined as 23 nM.
On the same count and under the same terms, the same measure for `Cc1nc([C@@H]2O[C@H](CO)[C@H](O)[C@H](n3cc(-c4cc(F)c(F)c(F)c4)nn3)[C@H]2O)n(-c2cc(Cl)cc(C(F)(F)F)c2)n1` [Example 67]: 130 nM.
